Results on 16 molecules are retold here after ChEMBL document CHEMBL1129369, “Forskolin carbamates: binding and activation studies with type I adenylyl cyclase” (J Med Chem, 1996).

SMILES strings stand for the structures.

Broadly, the IC50 is the concentration at which inhibition is half-maximal. Lower therefore signals inhibition by little substance. The term EC50 denotes the concentration at which the effect is half-maximal.

For assay [1], the target named is T1, Adenylate cyclase type 1 (Homo sapiens, UniProt Q08828). Nature of the assay: (§1) Inhibition of [125 I]6-IHPP-forskolin binding to Adenylate cyclase 1.
Target sequence in this assay (Q08828 whole entry): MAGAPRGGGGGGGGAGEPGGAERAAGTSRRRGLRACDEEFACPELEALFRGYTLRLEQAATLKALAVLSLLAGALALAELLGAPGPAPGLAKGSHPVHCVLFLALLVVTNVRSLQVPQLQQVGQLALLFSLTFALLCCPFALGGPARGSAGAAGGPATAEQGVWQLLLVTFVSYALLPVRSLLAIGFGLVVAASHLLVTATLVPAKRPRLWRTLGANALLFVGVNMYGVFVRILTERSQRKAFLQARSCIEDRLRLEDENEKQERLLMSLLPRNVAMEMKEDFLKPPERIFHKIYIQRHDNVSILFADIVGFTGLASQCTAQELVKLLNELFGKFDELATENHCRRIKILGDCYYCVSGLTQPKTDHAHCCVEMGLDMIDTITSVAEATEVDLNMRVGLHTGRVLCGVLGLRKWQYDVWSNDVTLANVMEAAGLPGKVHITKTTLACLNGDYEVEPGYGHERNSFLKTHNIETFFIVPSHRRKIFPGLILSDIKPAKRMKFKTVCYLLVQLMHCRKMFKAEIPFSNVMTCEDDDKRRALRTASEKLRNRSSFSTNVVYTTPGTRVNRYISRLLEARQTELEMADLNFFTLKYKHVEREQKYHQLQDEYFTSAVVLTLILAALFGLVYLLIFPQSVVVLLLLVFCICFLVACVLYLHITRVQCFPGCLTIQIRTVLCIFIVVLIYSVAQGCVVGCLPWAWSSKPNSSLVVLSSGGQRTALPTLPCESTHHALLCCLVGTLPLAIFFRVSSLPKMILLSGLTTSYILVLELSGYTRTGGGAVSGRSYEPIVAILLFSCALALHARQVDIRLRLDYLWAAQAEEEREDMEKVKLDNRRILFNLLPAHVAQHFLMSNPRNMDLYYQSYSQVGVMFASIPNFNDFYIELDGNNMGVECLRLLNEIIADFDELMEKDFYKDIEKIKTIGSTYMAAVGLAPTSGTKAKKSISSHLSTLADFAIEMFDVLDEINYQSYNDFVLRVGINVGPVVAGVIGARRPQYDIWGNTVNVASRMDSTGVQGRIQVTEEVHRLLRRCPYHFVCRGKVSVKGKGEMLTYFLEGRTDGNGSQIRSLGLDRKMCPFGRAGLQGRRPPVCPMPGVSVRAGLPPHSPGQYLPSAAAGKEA
The target of assay [2] is T1, Adenylate cyclase type 1. The assay can be described thus: Maximum stimulation activity measured with 100 uM forskolin mediated by adenylate cyclase 1. The assay is classed as functional.
Target sequence in this assay (Q08828 whole entry, looked up): as the sequence (Q08828 whole entry) above
The target in assay [3] is T1, Adenylate cyclase type 1. The assay can be described thus: Conversion of [32P] ATP to [32P]-cyclic AMP mediated by adenylate cyclase 1. In kind it is functional. Particulars: read-out: EC50.
Target sequence in this assay (Q08828 whole entry): as above
In a further assay the target is Adenylate cyclase type 2 (Rattus norvegicus, UniProt P26769). Nature of the assay: Ability to activate the conversion of [32P] ATP to [32P]-cyclic AMP. In kind it is functional.
Assay [4] deals with T1, Adenylate cyclase type 1. The assay can be described thus: (§2) Inhibition of [125 I]6-IHPP-forskolin binding to adenylate cyclase 1.
Target sequence in this assay (Q08828 whole entry): as above
Assay [5] addresses T1, Adenylate cyclase type 1. Described as §2. The source holds these as a separate data set.
Target sequence in this assay (Q08828 whole entry): as above
Assay [6] addresses T1, Adenylate cyclase type 1. The assay can be described thus: Ability to activate the conversion of [32P] ATP to [32P]-cyclic AMP mediated by adenylate cyclase 1. In kind it is functional.
Target sequence in this assay (Q08828 whole entry): as above
Assay [7] addresses T1, Adenylate cyclase type 1. The assay can be described thus: Maximum stimulation activity measured with 100 uM forskolin mediated by Adenylate cyclase 1. In kind it is functional.
Target sequence in this assay (Q08828 whole entry, looked up): as the sequence (Q08828 whole entry) above
Assay [8] addresses T1, Adenylate cyclase type 1. The assay is described as §1. In kind it is functional.
Target sequence in this assay (Q08828 whole entry): as above

Adenylate cyclase type 2, sequence (P26769 whole entry): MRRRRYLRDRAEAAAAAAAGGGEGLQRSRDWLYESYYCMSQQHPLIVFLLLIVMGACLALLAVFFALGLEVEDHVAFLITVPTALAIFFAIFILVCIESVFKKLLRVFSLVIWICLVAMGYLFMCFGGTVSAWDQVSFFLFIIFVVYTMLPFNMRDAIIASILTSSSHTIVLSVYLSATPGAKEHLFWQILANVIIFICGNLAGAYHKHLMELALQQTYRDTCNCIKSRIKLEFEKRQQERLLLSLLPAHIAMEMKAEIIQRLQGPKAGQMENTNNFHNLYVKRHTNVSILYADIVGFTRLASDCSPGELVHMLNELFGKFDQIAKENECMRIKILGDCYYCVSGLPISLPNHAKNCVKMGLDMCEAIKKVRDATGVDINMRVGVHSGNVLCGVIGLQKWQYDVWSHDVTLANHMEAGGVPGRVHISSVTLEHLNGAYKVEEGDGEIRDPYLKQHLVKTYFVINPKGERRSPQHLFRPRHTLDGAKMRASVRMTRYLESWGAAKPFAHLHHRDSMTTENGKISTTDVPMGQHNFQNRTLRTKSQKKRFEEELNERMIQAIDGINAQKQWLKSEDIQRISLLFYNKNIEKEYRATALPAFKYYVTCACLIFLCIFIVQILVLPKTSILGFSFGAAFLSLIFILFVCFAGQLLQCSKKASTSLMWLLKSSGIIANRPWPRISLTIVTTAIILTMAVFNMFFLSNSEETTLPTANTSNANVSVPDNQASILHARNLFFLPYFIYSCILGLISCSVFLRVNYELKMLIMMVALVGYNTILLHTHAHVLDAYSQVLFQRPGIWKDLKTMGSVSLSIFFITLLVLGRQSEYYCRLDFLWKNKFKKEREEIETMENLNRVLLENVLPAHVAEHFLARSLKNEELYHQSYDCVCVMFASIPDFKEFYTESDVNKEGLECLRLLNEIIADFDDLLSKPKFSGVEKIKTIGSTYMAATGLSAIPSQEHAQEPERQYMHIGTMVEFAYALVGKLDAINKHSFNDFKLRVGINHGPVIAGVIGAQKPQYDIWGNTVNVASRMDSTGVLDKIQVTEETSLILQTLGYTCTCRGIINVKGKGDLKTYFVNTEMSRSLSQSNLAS

With `C=C[C@@]1(C)CC(=O)[C@]2(O)[C@@]3(C)[C@@H](O)CCC(C)(C)[C@@H]3[C@H](O)[C@H](OC(C)=O)[C@@]2(C)O1` [COLFORSIN], the IC50 on Adenylate cyclase type 1 [1] is below 150 nM; at Adenylate cyclase type 1 [4] it was 41 nM. On Adenylate cyclase type 1 [2], this molecule displayed an Activity of 100%. For the same molecule, the EC50 on Adenylate cyclase type 1 [3] was 500 nM; on Adenylate cyclase type 2 it was below 2000 nM.

Take `C=C[C@@]1(C)CC(=O)[C@]2(O)[C@@]3(C)[C@@H](O)CCC(C)(C)[C@@H]3[C@H](O)[C@H](OC(=O)NCCN3CCCCC3)[C@@]2(C)O1`: the IC50 at Adenylate cyclase type 1 [5] was above 150 nM; on Adenylate cyclase type 1 [4], 184 nM. Further, the concentration for a half-maximal effect (EC50) was below 2000 nM on Adenylate cyclase type 1 [6] and 1200 nM at Adenylate cyclase type 1 [3]. The molecule also displayed an Activity at Adenylate cyclase type 1 [7] of 81%.

Regarding `C=C[C@@]1(C)CC(=O)[C@]2(O)[C@@]3(C)[C@@H](O)CCC(C)(C)[C@@H]3[C@H](O)[C@H](OC(=O)NCCO)[C@@]2(C)O1`, the IC50 at Adenylate cyclase type 1 [5] is below 150 nM; at Adenylate cyclase type 1 [4] it was 43 nM. Also, the concentration giving a half-maximal response (EC50) was below 2000 nM at Adenylate cyclase type 1 [6] and 1400 nM on Adenylate cyclase type 1 [3]. Further, at Adenylate cyclase type 1 [7], the Activity was found to be 119%.

For `C=C[C@@]1(C)CC(=O)[C@]2(O)[C@@]3(C)[C@@H](O)CCC(C)(C)[C@@H]3[C@H](OC(=O)NCCC)[C@H](O)[C@@]2(C)O1`, the IC50 on Adenylate cyclase type 1 [8] was above 150 nM; on Adenylate cyclase type 1 [4] it was 555 nM. Moreover, the EC50 at Adenylate cyclase type 1 [6] is above 2000 nM; at Adenylate cyclase type 1 [3], 4900 nM. At Adenylate cyclase type 1 [2], the Activity is 61%.

In the case of `C=C[C@@]1(C)CC(=O)[C@]2(O)[C@@]3(C)[C@@H](O)CCC(C)(C)[C@@H]3[C@H](OC(=O)NCCOC)[C@H](O)[C@@]2(C)O1`, the results for the IC50 on Adenylate cyclase type 1 [5] and at Adenylate cyclase type 1 [4] were above 150 nM and 318 nM, respectively. Moreover, the EC50 on Adenylate cyclase type 1 [6] was above 2000 nM; on Adenylate cyclase type 1 [3] it was 3100 nM. Moreover, on Adenylate cyclase type 1 [7], the Activity was 84%.

For the molecule `C=C[C@@]1(C)CC(=O)[C@]2(O)[C@@]3(C)[C@@H](O)CCC(C)(C)[C@@H]3[C@H](OC(=O)NCCC(=O)OCC)[C@H](O)[C@@]2(C)O1`, the IC50 was above 150 nM at Adenylate cyclase type 1 [5] and 171 nM at Adenylate cyclase type 1 [4]. The concentration for a half-maximal effect (EC50) is above 2000 nM on Adenylate cyclase type 1 [6] and 6500 nM at Adenylate cyclase type 1 [3]. On Adenylate cyclase type 1 [2], the Activity was 75%.

For the molecule `C=C[C@@]1(C)CC(=O)[C@]2(O)[C@@]3(C)[C@@H](O)CCC(C)(C)[C@@H]3[C@H](OC(=O)NCCN3CCCCC3)[C@H](O)[C@@]2(C)O1`, the IC50 was below 150 nM at Adenylate cyclase type 1 [5] and 123 nM at Adenylate cyclase type 1 [4]. Besides, the EC50 at Adenylate cyclase type 1 [6] was below 2000 nM; on Adenylate cyclase type 1 [3] it was 1700 nM. At Adenylate cyclase type 1 [2], this molecule yielded an Activity of 80%.

With `C=C[C@@]1(C)CC(=O)[C@]2(O)[C@@]3(C)[C@@H](O)CCC(C)(C)[C@@H]3[C@H](O)[C@H](OC(=O)NCCN(C)C)[C@@]2(C)O1`, the half-inhibitory concentration (IC50) at Adenylate cyclase type 1 [5] is above 150 nM; on Adenylate cyclase type 1 [4], 228 nM. Also, the EC50 on Adenylate cyclase type 1 [6] was above 2000 nM; at Adenylate cyclase type 1 [3], 2200 nM. At Adenylate cyclase type 1 [7], this molecule gave an Activity of 89%.

Regarding `C=CCNC(=O)O[C@H]1[C@H]2C(C)(C)CC[C@H](O)[C@]2(C)[C@@]2(O)C(=O)C[C@](C)(C=C)O[C@]2(C)[C@H]1OC(C)=O`, the results for the 50% inhibitory concentration (IC50) on Adenylate cyclase type 1 [5] and on Adenylate cyclase type 1 [4] were below 150 nM and 76 nM, respectively. In addition, the figures for the EC50 on Adenylate cyclase type 1 [6] and on Adenylate cyclase type 1 [3] were above 2000 nM and 4400 nM, respectively. This molecule also yielded an Activity at Adenylate cyclase type 1 [2] of 80%.

Regarding `C=C[C@@]1(C)CC(=O)[C@]2(O)[C@@]3(C)[C@@H](O)CCC(C)(C)[C@@H]3[C@H](O)[C@H](OC(=O)NCCc3ccc(N)cc3)[C@@]2(C)O1`, the half-inhibitory concentration (IC50) on Adenylate cyclase type 1 [5] was below 150 nM; at Adenylate cyclase type 1 [4], 64 nM. The figures for the concentration giving a half-maximal response (EC50) at Adenylate cyclase type 1 [6] and at Adenylate cyclase type 1 [3] were below 2000 nM and 1100 nM, respectively. For the same molecule, the Activity at Adenylate cyclase type 1 [7] stood at 68%.

For `C=C[C@@]1(C)CC(=O)[C@]2(O)[C@@]3(C)[C@@H](O)CCC(C)(C)[C@@H]3[C@H](O)[C@H](OC(=O)NCC3CCCCC3)[C@@]2(C)O1`, the 50% inhibitory concentration (IC50) at Adenylate cyclase type 1 [5] was above 150 nM; at Adenylate cyclase type 1 [4], 1600 nM. For the same molecule, the 50% effective concentration (EC50) was above 2000 nM at Adenylate cyclase type 1 [6] and 6400 nM on Adenylate cyclase type 1 [3]. On Adenylate cyclase type 1 [2], this molecule returned an Activity of 44%.

Take `C=C[C@@]1(C)CC(=O)[C@]2(O)[C@@]3(C)[C@@H](O)CCC(C)(C)[C@@H]3[C@H](OC(=O)NCC(C)C)[C@H](O)[C@@]2(C)O1`: the results for the IC50 on Adenylate cyclase type 1 [5] and at Adenylate cyclase type 1 [4] were above 150 nM and 593 nM, respectively. In addition, the concentration giving a half-maximal response (EC50) at Adenylate cyclase type 1 [6] was above 2000 nM; at Adenylate cyclase type 1 [3], 2500 nM. The molecule further registered an Activity on Adenylate cyclase type 1 [2] of 88%.

Regarding `C=C[C@@]1(C)CC(=O)[C@]2(O)[C@@]3(C)[C@@H](O)CCC(C)(C)[C@@H]3[C@H](O)[C@H](OC(=O)NCCC)[C@@]2(C)O1`, the results for the IC50 on Adenylate cyclase type 1 [5] and on Adenylate cyclase type 1 [4] were below 150 nM and 89 nM, respectively. For the same molecule, the figures for the EC50 at Adenylate cyclase type 1 [6] and at Adenylate cyclase type 1 [3] were below 2000 nM and 1300 nM, respectively. The molecule further showed an Activity on Adenylate cyclase type 1 [2] of 101%.

On to `C=C[C@@]1(C)CC(=O)[C@]2(O)[C@@]3(C)[C@@H](O)CCC(C)(C)[C@@H]3[C@H](O)[C@H](OC(=O)NCCC(=O)OCC)[C@@]2(C)O1`, for which the IC50 on Adenylate cyclase type 1 [5] was above 150 nM; on Adenylate cyclase type 1 [4], 185 nM. For the same molecule, the concentration giving a half-maximal response (EC50) at Adenylate cyclase type 1 [6] is above 2000 nM; on Adenylate cyclase type 1 [3], 3600 nM. This molecule showed an Activity on Adenylate cyclase type 1 [2] of 127%.

With `C=C[C@@]1(C)CC(=O)[C@]2(O)[C@@]3(C)[C@@H](O)CCC(C)(C)[C@@H]3[C@H](OC(=O)NCCc3ccccn3)[C@H](OC(C)=O)[C@@]2(C)O1`, the results for the 50% inhibitory concentration (IC50) on Adenylate cyclase type 1 [5] and on Adenylate cyclase type 1 [4] were below 150 nM and 21 nM, respectively. For the same molecule, the EC50 on Adenylate cyclase type 1 [6] is below 2000 nM; at Adenylate cyclase type 1 [3], 600 nM. The molecule further displayed an Activity at Adenylate cyclase type 1 [2] of 97%.

For the molecule `C=C[C@@]1(C)CC(=O)[C@]2(O)[C@@]3(C)[C@@H](O)CCC(C)(C)[C@@H]3[C@H](OC(=O)NCCc3ccccc3)[C@H](OC(C)=O)[C@@]2(C)O1`, the half-maximal inhibitory concentration (IC50) on Adenylate cyclase type 1 [5] is below 150 nM; at Adenylate cyclase type 1 [4] it was 36 nM. The concentration for a half-maximal effect (EC50) was below 2000 nM on Adenylate cyclase type 1 [6] and 1500 nM at Adenylate cyclase type 1 [3]. Besides, at Adenylate cyclase type 1 [2], the Activity is 65%.
